Source: patent US12174172B2, “Method for evaluating the efficacy of a composition in reducing the effects of cancer therapeutics on skin” (Johnson & Johnson Consumer Inc., priority 2019, dated 2024)
“Also recorded” adds a separate entry of the source.

Key:
Type in all cases: cell-based, human
involucrin (IVL) = experiment: 3D micro-epidermis model (EpiScreen): involucrin immunostaining
Protocol: To assess the effects of such therapy molecules on the epidermis, keratinocytes were grown in the presence of kinase inhibitors during 3 days with high calcium concentration to induce keratinocyte differentiation and generate a 3D-stratified differentiated epidermis. Drug impact on the epidermis development was assessed via different keratinocyte markers including: • Ki-67, an universally expressed protein among proliferating cells and absent in the quiescent cells; • Filaggrin, a filament-associated protein that binds to keratin fibers and is a marker of terminal differentiation; • Desmoglein-1, a component of desmosomes and differentiation marker expressed in all epidermal layer above the basal layer; and • Involucrin, an early differentiation marker expressed in the spinous and granular layers and a protein precursor of the epidermal cornified envelope.
Human epidermal keratinocytes cells (HPEKs) from a juvenile donor (CellnTec, Switzerland) are cultured in flasks in proliferation medium. Keratinocytes are seeded at passage 6 into EpiScreen™ (Abzena, Cambridge, UK) plates containing collagen 1 coated disc micropatterns (CYTOO, Grenoble, France). Four hours later, unattached cells are washed off and a high calcium medium is added to induce keratinocytes differentiation. The day after, keratinocytes are treated with screening compounds, and Trichostatin A is added at 0.3 μM as an internal positive control. After three days of treatment, micro-epidermises are fixed with a formalin solution 10% for 30 minutes, then permeabilized with 0.1% Triton. Several immunostainings are performed: actin (Acti-Stain 555, PHDH1, Cytoskeleton), nuclei (Hoechst, H3570, Invitrogen), and one biomarker of interest per well either anti-involucrin (HPA055211, Sigma), anti-filaggrin (HPA030189, Sigma) or anti-desmoglein-1 (HPA022128, Sigma). Antibodies are added overnight at 4° C. before staining with secondary antibody, anti-rabbit 488 (711-545-152, Jackson) for 2 hours at room temperature.
Images of each well are acquired with the Operetta HCS platform (Perkin Elmer, Waltham, MA, USA) using a ×10 objective in confocal mode in eight z-planes from 2 μm to 44 μm in steps of 6 μm in each of the 3 channels: actin, nuclei, and one biomarker of interest. The first step of the image analysis consists in detecting micro-epidermis structures on the first z-plane by segmenting the actin staining. Micro-epidermis structures are validated based on several area and roundness min and max criteria. Then, the area of each biomarker staining is measured inside the valid micro-epidermis masks through each z-plane. For all homogeneous biomarker staining, their intensity through the different planes is measured.
The actin network of each micro-epidermis is analyzed in each z-plane in order to determine the average 3D structure edges. The biomarker intensity is measured in each z-plane for each structure, and then averaged with the other results generated in the same well. Based on the data generated in the two previous steps, an average 3D reconstruction image is generated. It consists of a meshwork that delimits the structure edges, and a color scaled volume that corresponds to the biomarkers distribution and expression.
The effect of 8 oncology molecules, selected from first generation EGFRi and pan-kinase inhibitors which mostly target VEGFR and second and third generation therapies targeting main mutations relating to first generation treatment resistance, were assessed in vitro using a 3D micro-epidermis model. […] The drug impact was assessed by analysis of tissue size and keratinocyte proliferation using Ki-67 staining and keratinocyte differentiation using filaggrin, desmoglein-1 and involucrin staining.
Size of the epidermis and the expression of the protein junction desmoglein-1 (DSG1), involucrin (IVL) and filaggrin (FLG) was assessed by immunostaining and compared to untreated control. […]

filaggrin (FLG) = experiment: 3D micro-epidermis model (EpiScreen): filaggrin immunostaining;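 also: human primary epidermal keratinocytes differentiated in high calcium into 3D micro-epidermises, compound-treated for three days, imaged by confocal high-content microscopy, filaggrin staining intensity quantified within actin-segmented structures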
Keratinocytes = experiment: WST-8 viability and proliferation assay; conditions: keratinocytes exposed for 24 h, relative to vehicle (FIG. 5a)
Text: The Water-Soluble Tetrazolium Salts (WST-8) Colorimetric Cell Proliferation Kit (Promokine, Heidelberg, Germany) provides a rapid and sensitive way to quantify proliferation and cell viability. Cell proliferation causes an increase in the amount of formazan dye formed that can be quantified by measuring the absorbance of the dye solution at […] using a microtiter plate reader (Perkin Elmer EnVision 2103 Multilabel Reader, Waltham, MA, USA). Cellular proliferation induces an increase in the activity of mitochondrial dehydrogenases, which cleaves the tetrazolium salt […] into formazan. 15,000 Keratinocytes per well were seeded on 96-well plate, once confluence reach, drug concentration used were +/−½ log of the plasmatic concentration. 10 μl of Colorimetric Cell Viability Kit is added and completed with 360 μl of culture media, results were read after 4 h at 450 nm to determine cell viability. Results were obtained with 6 donors of keratinocytes in 2 experiments

## CN(C)C/C=C/C(=O)Nc1cc2c(Nc3ccc(F)c(Cl)c3)ncnc2cc1O[C@H]1CCOC1 [Afatinib]
Involucrin (IVL); 30 nM, supplementary data
  IVL 30 nM: 12%
Involucrin (IVL); Homo sapiens, 72 h, 100 nM, supplementary data, two runs, Tox = toxic
  activation at 0.1 µM: 16%
Involucrin (IVL); Homo sapiens, 72 h, 1 μM, supplementary data, two runs, Tox = toxic
  activation at 1 µM: 27%
Involucrin (IVL); Table 1 summary
  IVL expression: Increased
Involucrin (IVL); concentration (afatinib 3, 10, 30 nM; pan-kinase inhibitors 100 nM)
  involucrin expression: significantly increased; also recorded: increased in a dose-dependent manner
Filaggrin (FLG); 3 nM, supplementary data
  FLG 3 nM: 4%
Filaggrin (FLG); 30 nM, supplementary data
  FLG 30 nM: 19%
Filaggrin (FLG); Homo sapiens, 72 h, 10 nM, supplementary data, two runs, read-out: FLG 10 nM
  activation at 0.01 µM: 12%
Filaggrin (FLG); Table 1 summary
  FLG expression: Increased
Filaggrin (FLG); concentration (afatinib 10 and 30 nM; pan-kinase inhibitors 100 nM)
  filaggrin expression: significantly increased; also recorded: increased in a dose-dependent manner
Keratinocytes
  cell viability: decreases; also recorded: significant effect
